# Laboratory results reported in patent US7316996B2, “Bisacyloxypropylcysteine conjugates and the use thereof” (GBF Gesellschaft fur Biotechnologische Forschung mbH, priority 2002, dated 2008).
# Entries after “also recorded” stand apart in the source; their conditions may differ.
# Legend:
# [1] = tested on: mouse peritoneal macrophages; test: Nitrogen monoxide release assay (macrophage activation test); format: cell-based, C3H/HeJ mice; conditions: FIG. 1
# Excerpt: In principle, the activation of macrophages and monocytes can be measured by a large number of parameters, for example by means of the release of cytokines, chemokines or arachidonic acid metabolites in cultures of human monocytes or murine peritoneal macrophages. The test which is used here is based on the simultaneous stimulation of mouse peritoneal macrophages with interferon-γ and macrophage activator, e.g. BAP-Cys-PEG, so as to release nitrogen monoxide. (Reference: Muhlradt, P. F., and Frisch, M., 1994, “Purification and partial biochemical characterization of a Mycoplasma fermentans-derived substance that activates macrophages to release nitric oxide, tumor necrosis factor, and interleukin-6”, Infect. Immun. 62:3801-3807).
# In brief, peritoneal macrophages from C3H/HeJ mice were used as the macrophage source. They were cultured in 96-well microtiter plates and stimulated simultaneously with rIFN-γ and a serial dilution of macrophage activator. Insofar as necessary, the macrophage activators were dissolved in 25 mM octylglucoside in the first dilution step and then diluted further with medium. After an incubating time of 45-48 hours, the nitrate was reduced with nitrate reductase and the starting substance nitrogen monoxide was determined, as the sum of nitrate and nitrite, using Griess' reagent. […]
# [2] = tested on: β-galactosidase-specific antibodies; test: Serum β-gal-specific IgG (ELISA) after intranasal immunization with β-gal plus adjuvant; format: in vivo, BALB/c (H-2d) mice
# Experimental: FIG. 3: Humoral responses which are stimulated after inoculating with MALP-2 derivatives and BPP-Cys-PEG, as mucosal adjuvants, at a dose of 0.05 μg per animal per immunization. The mice were immunized intranasally, on days 0, 7 and 14, with β-galactosidase (50 μg/dose) mixed with the above derivatives. On day 31 after the first immunization, serum samples were withdrawn and the concentrations of the β-galactosidase-specific antibodies were determined by means of ELISA. The results are depicted as end point titers.
# (§1) 6-8-week-old female BALB/c (H-2d) mice (Harlan Winkelmann GmbH, Borchen, Germany) were used for the experiments. Groups of in each case 5 mice were administered 50 μg of β-galactosidase (β-gal) (Boehringer, Mannheim, Germany), either on its own or together with 0.5 μg of synthetic R-MALP-2, S-MALP-2 or BPP-Cys-PEG, as adjuvant, by the nasal route (25 μl) on days 1, 14 and 21. Serum samples were withdrawn on day 31 and stored at −20° C. until the β-gal-specific antibodies were determined. Nunc-Immuno MaxiSorp test plates containing 96 wells (Nunc, Roskilde, Denmark) were coated with 100 μl of β-gal (Boehringer, Mannheim, Germany), containing 5 μg/ml in 0.05 mol carbonate buffer (pH 8.2), per well. Serial double dilutions of the sera or washings in PBS containing 1% BSA and 0.05% Tween 20 were added (100 μl/well) and the plates were incubated at 37° C. for 2 hours. […]
# [3] = tested on: β-gal-specific IgA; test: β-gal-specific IgA in lung and vaginal washings of intranasally immunized mice; format: in vivo, BALB/c (H-2d) mice; conditions: intranasal immunization with β-gal plus adjuvant
# Experimental: as §1
# Vaginal and lung washings were obtained by rinsing the organs with […] PBS which contained 50 mM EDTA, 0.1% BSA and 10 mM PMSF. […] In order to investigate the capacity of R-MALP-2, S-MALP-2 and BPP-Cys-PEG for stimulating effective humoral immune responses, the serum titers of β-gal-specific antibodies were determined in the inoculated mice.
# [4] = tested on: diabetic mice (C57BKLS/Bom-db); test: Wound healing in diabetic mice; format: in vivo; conditions: 3×200 kU per animal on days 0, 2 and 5, in methylcellulose and 5% mouse serum; versus carrier control; FIG. 2
# Excerpt: As in the case of diabetic patients, wound healing is also disturbed in diabetic mice and proceeds more slowly than in wild-type mice. The diabetic mouse is therefore an established animal model for wound healing.
# An area of approx. 4×4 cm in size was shaved on the backs of 20 diabetic mice ([…] C57BKLS/Bom-db) and this area was depilated with Veet two days later, after which the cream was carefully removed. After a further two days, the depilated backs of the mice were disinfected with Braunol. After anaesthesia had been initiated with isoflurane/air, an additional local anaesthesia was performed by means of the i.c. injection of 2% xylocaine directly into the site envisaged for the excision, and the skin was defatted with trichloroethylene. After that, scissors were used to cut out a circular skin wound of 1.3 cm in diameter in each of the mice. The wounds were closed with a transparent plaster (Hydrofilm, F. Hartmann) and dressing adhesive. An additional, larger plaster, having an aperture corresponding to the wound, making possible continued observation of the wound, was adhered on top of the first plaster.
# 3×200 kUnits of BPP-Cys-PEG, in methylcellulose and 5% mouse serum (as carrier), were administered, per animal, through the transparent plaster on days 0, 2 and 5.
# Control mice were only given the carrier mixture. […]
# [5] = tested on: spleen cells; test: β-gal-specific T cell proliferation of spleen cells from immunized mice ([3H]-thymidine uptake); format: in vivo, BALB/c (H-2d) mice; conditions: spleen cells re-stimulated in vitro for 4 days with soluble β-gal; FIG. 6
# Excerpt: FIG. 6: β-gal-specific T cell proliferation responses of spleen cells from immunized mice. The cells were re-stimulated in vitro over 4 days with different concentrations of soluble β-gal. The results are depicted as ratios between the values (means of triple determinations) from stimulated and unstimulated samples (stimulation index).
# The spleens were removed and taken together for analyzing the cell immune responses. The cells were propagated in RPMI 1640, additionally containing 10% calf serum, 100 U of penicillin/ml, 15 μg of streptomycin/ml, 5×10^−5 M 2-mercaptoethanol and 1 mM L-glutamine (GIBCO BRL, Karlsruhe, Germany), and stored at 37° C. in a moist atmosphere containing 5% CO2. […] These cells were then harvested on filter paper (Filtermat A; Wallac, Freiburg, Germany) using a cell harvester (Inotech, Wohlen, Switzerland) and the quantity of [^3H] thymidine taken up into the DNA of proliferating cells was determined using a scintillation counter (Wallac 1450, Micro-Trilux). The results were recorded as the ratios between the values (mean values, determined in triplicate) of stimulated and unstimulated samples (stimulation index).
substance,measurement,setting,value
bispalmitoyloxy-propylcysteine-PEG [BPP-Cys-PEG],"concentration achieving the same degree of macrophage activation, relative to TPP-Cys-PEG",[1]; comparison with TPP-Cys-PEG (PAM3-Cys-PEG),approx. forty times lower
same,"potential for activating macrophages (nitrogen monoxide production), compared with PAM3-Cys-PEG","[1]; peritoneal macrophages co-stimulated with rIFN-γ, 45-48 hours",markedly higher potential for activating macrophages
same,antigen-specific (β-gal) serum IgG titers,"[2]; intranasal, 50 μg β-gal with 0.5 μg adjuvant, serum on day 31, FIG. 3",rise more rapidly than those obtained using R-MALP-2
same,effectiveness as a mucosal adjuvant compared with R-MALP-2 (overall conclusion),"[2]; summary of humoral and cellular responses, systemic and mucosal","at least as effective as, or even more effective than, R-MALP-2"
same,β-gal-specific IgA in lung washings,[3]; FIG. 4,significant increase in antigen-specific IgA antibodies
same,β-gal-specific IgA in vaginal washings,[3]; FIG. 5,significant concentrations of β-gal-specific IgA
same,wound healing,[4],accelerated the wound healing significantly
same,β-gal-specific T cell proliferation response (stimulation index),[5],effective proliferation response; also recorded: strongest T cell proliferation response
